According to patent publication US6603023B2 (priority 1996, dated 2003):
Like-named read-outs stand apart in the source and are kept apart here. Marks after values point to notes of the source that are not given here. Starred links: 1 amine or outer side, 2 acyl side, 3 side chain; linkers in the order of their positions; H or OH if unused. Positions of bridges follow the written chain, without caps; N, C: chain ends. Non-standard residues stand in square brackets, D forms with d. Residues, ends and D or L forms follow the SMILES beside them. Chains are numbered I, II in the order given. Actinocin(9to1) = Cc1c2oc3c(C)ccc(C(=O)[*:1])c3nc-2c(C(=O)[*:2])c(N)c1=O; NMeV = CN[C@H](C(=O)O)C(C)C; Sar = CNCC(=O)O

Columns and labels:
[1] = ester bond
[2] = system: CCRF-CEM human T-cell acute lymphoblastic leukemia cell line; assay: XTT cytotoxicity (cell growth inhibition), CCRF-CEM
Method in brief: (§1)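 Duplicate 72 h cultures at 5×10^4 cells/mL, 37 °C, 5% CO2; then XTT plus PMS for 4 h; dual-wavelength read at 450/630 nm. Resistant sublines held under their selecting agents.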

CCRF-CEM/Taxol® = assay: cells; type: cell-based, human; conditions: for IC50: XTT, 72 h, read-out: IC50
Method in brief: as §1

CCRF-CEM/VBL100 = assay: cells; type: cell-based, human; conditions: for (B)/(A) IC50 ratio: CCRF-CEM/VBL100 vs CCRF-CEM
Method in brief: as §1

CCRF-CEM/VM1 = assay: cells; type: cell-based, human; conditions: for (D)/(A) IC50 ratio: CCRF-CEM/VM1 vs CCRF-CEM
Method in brief: as §1

[3] = system: DC-3F hamster lung fibroblast cell line; assay: SRB cytotoxicity, DC-3F; type: cell-based; conditions: read-out: IC50
Description: (§2) The DC-3F hamster lung fibroblast cell line and its actinomycin D-selected sublines (DC-3F/ADII and DC-3F/ADX) were obtained from the Memorial Sloan-Kettering Cancer Center (MSKCC).
(§3) The drug-resistant cell lines were continuously cultured in the presence of the selecting agent, AD, DX, VBL or VM to maintain the drug resistant phenotypes. […] All cells were cultured in RPMI 1640-10% FBS at 37° C. 5% CO2 (see below).
(§4) The cytotoxicity of the drug toward the monolayer cell cultures (such as DC-3F, MCF-7, SK-N-As and sublines) was determined in 96-well microtiter plates by the SRB method as described by Skehan and co-workers (Skehan, P., et al., J. Natl. Cancer Inst. 1990, 82, 1107-1112) for measuring the cellular protein content. Cultures were fixed with trichloroacetic acid and then stained for 30 min with 0.4% suforhodamine B dissolved in 1% acetic acid. Unbound dye was removed by acetic acid washes, and the protein-bound dye was extracted with an unbuffered Tris base (tris(hydroxy-methyl)aminomethane) for determination of absorbance at 570 nm in a 96-well microtiter plate reader. The experiments were carried out in duplicate. Each run entailed six to seven concentrations of the tested drugs. Data were analyzed with the median-effect plot (Chou, T.-C. & Talalay, P. T. (1984) Adv. Enzyme Regul. 22, 27-55) using a previously described computer program (Chou, J., & Chou T.-C. 1987, Dose-effect analysis with microcomputers: Quantitation of ED50, synergism, antagonism, low-dose risk, reception-ligand binding and enzyme kinetics, IBM-PC software and manual, Biosoft, Cambridge, U.K.).

DC-3F/ADII = assay: SRB cytotoxicity, DC-3F/ADII; type: cell-based, hamster; conditions: Table 3; read-out: IC50
Description: as §2, §3, §4
(§5) Concerning Table 3, experiments were carried out using the cell lines DC-3F (parent hamster lung cells), DC-3F/ADII (moderate multidrug-resistant (MDR) cells) and DC-3F/ADX (very strong MDR cells).

DC-3F/ADX = assay: cells; type: cell-based, hamster; conditions: for folds of resistance (IC50 ratio vs parent cell line): DC-3F/ADX vs DC-3F; for IC50: read-out: IC50
Description: as §2, §3, §4, §5

murine leukemic P388/0 = assay: XTT cytotoxicity, P388/0; type: cell-based; conditions: Table 1C; XTT, 72 h; read-out: IC50
Description: as §2, §3
(§6) The cells were cultured at an initial density of 5×10^4 cells/mL. They were maintained in a 5% CO2-humidified atmosphere at 37° C. in RPMI-1640 medium (GIBCO-BRL, Gaithersburg, Md.) containing penicillin (100 U/mL), streptomycin ([…]) (GIBCO-BRL) and 10% heat inactivate fetal bovine serum. Culture for cell suspension (such as for CCRF-CEM, P388 and sublines), were performed by the XTT-microculture tetrazonium method (Scudiero, D. A. et al., Cancer Res. 1988, 48, 4827-4833) in duplicate in 96-well microtiter plates.
(§7) 2′,3′-Bis(methoxy-4-nitro-5-sufophenyl)-5-[(phenylamino)carbonyl]2H-tetrazolium hyudroxide (XTT) was prepared at 1 mg/mL in prewarmed (37° C.) medium without serum. Phenazine methosulfate (PMS) and fresh XTT were mixed together to obtain 0.025 mM PMS-XTT solution (25 μL of the stock 5 mM PMS was added per 5 mL of 1 mg/mL XTT). Following a 72 h incubation, 50 μL of the assay aliquots were added to each well of the cell culture. After incubation at 37° C. for 4 h, absorbance at 450 nm and 630 nm was measured with a microplate reader (EL340, Bio-Tek Instruments, Inc., Winooski, Vt.).

P388/Adr = assay: cells; type: cell-based, murine; conditions: Table 1C; for folds of resistance (IC50 ratio vs parent cell line): P388/Adr vs P388/O; for IC50: XTT, 72 h, read-out: IC50
Description: as §3, §6, §7

[4] = system: human neuroblastoma SK-N-As; assay: SRB cytotoxicity, SK-N-As; type: cell-based; conditions: Table 1C; SRB, 72 h; read-out: IC50
Description: as §2, §3, §4

SK-N-FI = assay: cells; type: cell-based, human; conditions: Table 1C; for folds of resistance (IC50 ratio vs parent cell line): SK-N-FI vs SK-N-As; for IC50: SRB, 72 h, read-out: IC50
Description: as §3, §4

MCF-7 = assay: SRB cytotoxicity, MCF-7; type: cell-based, human; conditions: Table 1C; SRB, 72 h; read-out: IC50
Description: as §4

MCF-7/Adr = assay: cells; type: cell-based, human; conditions: Table 1C; for folds of resistance (IC50 ratio vs parent cell line): MCF-7/Adr vs MCF-7; for IC50: SRB, 72 h, read-out: IC50
Description: Cultures were fixed with trichloroacetic acid and then stained for 30 min with 0.4% suforhodamine B dissolved in 1% acetic acid. Unbound dye was removed by acetic acid washes, and the protein-bound dye was extracted with an unbuffered Tris base (tris(hydroxy-methyl)aminomethane) for determination of absorbance at 570 nm in a 96-well microtiter plate reader. The experiments were carried out in duplicate. Each run entailed six to seven concentrations of the tested drugs.

[5] = Table 1A, XTT, 72 h, read-out: IC50
[6] = Table 6, single determinations, read-out: IC50

## C/C(=C\c1csc(C)n1)[C@@H]1C/C=C\CCCC[C@H](O[Si](C)(C)C(C)(C)C)[C@@H](C)C(=O)C(C)(C)[C@@H](O[Si](C)(C)C(C)(C)C)CC(=O)O1
[1]; from C/C(=C\c1csc(C)n1)[C@@H](O)C/C=C\CCCC[C@H](O[Si](C)(C)C(C)(C)C)[C@@H](C)C(=O)C(C)(C)[C@H](CC(=O)O)O[Si](C)(C)C(C)(C)C, DCC/DMAP/DMAP.HCl, CHCl3, 0.32 mM, 80.0 °C, 20.0 h
  ring closure, yield of all isomers: 75%

## CC[Si](CC)(CC)O[C@H]1CC(=O)O[C@H](/C(C)=C/c2csc(C)n2)C/C=C(/C)CCC[C@H](C)[C@H](OC(=O)OCC(Cl)(Cl)Cl)[C@@H](C)C(=O)C1(C)C
[1]; from CC[Si](CC)(CC)O[C@@H](CC(=O)O)C(C)(C)C(=O)[C@H](C)[C@@H](OC(=O)OCC(Cl)(Cl)Cl)[C@@H](C)CCC/C(C)=C\C[C@H](O)/C(C)=C/c1csc(C)n1, 2,4,6-trichlorobenzoyl chloride / Et3N / DMAP, toluene, 0.79 mM, 25.0 °C, 3.5 h
  ring closure, yield of all isomers: 78%
[1]; from CC[Si](CC)(CC)O[C@@H](CC(=O)O)C(C)(C)C(=O)[C@H](C)[C@@H](OC(=O)OCC(Cl)(Cl)Cl)[C@@H](C)CCC/C(C)=C\C[C@H](O)/C(C)=C/c1csc(C)n1, 2,4,6-trichlorobenzoyl chloride/Et3N/DMAP, toluene, 1.32 mM, 25.0 °C, 3.75 h
  ring closure, yield of all isomers: 78%

## Cc1c2oc3c(C)ccc(C(=O)N[C@@H]4C(=O)N[C@H](C(C)C)C(=O)N5CCC[C@H]5C(=O)N(C)CC(=O)N(C)[C@@H](C(C)C)C(=O)O[C@@H]4C)c3nc-2c(C(=O)N[C@@H]2C(=O)N[C@H](C(C)C)C(=O)N3CCC[C@H]3C(=O)N(C)CC(=O)N(C)[C@@H](C(C)C)C(=O)O[C@@H]2C)c(N)c1=O [Actinomycin D, actinomycin D] (I: T[dV]P[Sar][NMeV] / II: T[dV]P[Sar][NMeV]; ester I:1-I:C, II:1-II:C; linker I:N-II:N via Actinocin(9to1))
[2]; Table 1A, XTT, 72 h
  IC50: 0.35 nM
CCRF-CEM/Taxol®
  (C)/(A) IC50 ratio: 3.7
CCRF-CEM/Taxol®; Table 1A
  IC50: 1.3 nM
CCRF-CEM/VBL100; Table 1A
  (B)/(A) IC50 ratio: 109
CCRF-CEM/VBL100; [5]
  IC50: 38 nM
CCRF-CEM/VM1; Table 1A
  (D)/(A) IC50 ratio: 0.8
CCRF-CEM/VM1; [5]
  IC50: 0.27 nM
[3]; Table 1C, SRB, 72 h
  IC50: 0.44 nM
[3]; Table 3
  IC50: 0.058 nM
[3]; Table 3, value in parentheses
  IC50: 0.0582 nM
DC-3F/ADII
  IC50: 8.2 nM
DC-3F/ADX; DC-3F/ADX cells, listed as AD
  fold resistance vs parent DC-3F: 13,000 fold
DC-3F/ADX; Table 1C
  folds of resistance (IC50 ratio vs parent cell line): (13000x)
DC-3F/ADX; Table 1C, SRB, 72 h
  IC50: 572 nM
DC-3F/ADX; Table 3
  IC50: 486 nM
Murine leukemic P388/0
  IC50: 0.15 nM
P388/Adr
  folds of resistance (IC50 ratio vs parent cell line): (8x)
  IC50: 1.2 nM
[4]
  IC50: 0.85 nM
SK-N-FI
  folds of resistance (IC50 ratio vs parent cell line): (14x)
  IC50: 11.9 nM
MCF-7
  IC50: 0.68 nM
MCF-7/Adr
  folds of resistance (IC50 ratio vs parent cell line): (2.5x)
  IC50: 1.67 nM

## C/C(=C\c1csc(C)n1)[C@@H]1C/C=C\CCC[C@H](C)[C@H](O)[C@@H](C)C(=O)C(C)(C)[C@@H](O)CC(=O)O1 [Desoxyepothilone A, desoxyepothilone A]
[2]
  IC50: 22 nM
[2]; Table 1, XTT
  IC50: 22 nM
[2]; Table 1A, XTT, 72 h
  IC50: 22 nM
[2]; Table 2
  IC50: 2 nM
[2]; Table 6, single determinations
  IC50: 22 nM
[2]; Table 7, CEM
  IC50: 22 nM
[2]; read-out: IC50 (A), Table 2A, parent cell line
  IC50: 22 nM
CCRF-CEM/Taxol®; Table 1A, CCRF-CEM/Taxol vs CCRF-CEM
  (C)/(A) IC50 ratio: 0.7
CCRF-CEM/Taxol®; Table 1A
  IC50: 15 nM
CCRF-CEM/VBL100; Table 1, XTT, read-out: IC50
  IC50: 12 nM
CCRF-CEM/VBL100; Table 1A
  (B)/(A) IC50 ratio: 0.55
CCRF-CEM/VBL100; [5]
  IC50: 12 nM
CCRF-CEM/VBL100; Table 2, CCRF-CEM/VLB, read-out: IC50
  IC50: 12 nM
CCRF-CEM/VBL100; Table 2A
  (B)/(A) ratio (fold resistance >1, collateral sensitivity <1): (0.55)^b
CCRF-CEM/VBL100; Table 2A, MDR cell line, read-out: IC50 (B)
  IC50: 12 nM
CCRF-CEM/VBL100; [6]
  IC50: 12 nM
CCRF-CEM/VBL100; Table 7, CEM/VBL, read-out: IC50
  IC50: 12 nM
CCRF-CEM/VBL100; read-out: IC50
  IC50: 12 nM
CCRF-CEM/VM1; Table 1, XTT, read-out: IC50
  IC50: 13 nM
CCRF-CEM/VM1; Table 1A
  (D)/(A) IC50 ratio: 0.59
CCRF-CEM/VM1; [5]
  IC50: 13 nM
CCRF-CEM/VM1; Table 2, CCR-CEM/VM-1, read-out: IC50
  IC50: 13 nM
CCRF-CEM/VM1; Table 2A
  (C)/(A) ratio (fold resistance >1, collateral sensitivity <1): (0.59)^b
CCRF-CEM/VM1; Table 2A, Topo II gene mutated cell line, read-out: IC50 (C)
  IC50: 13 nM
CCRF-CEM/VM1; [6]
  IC50: 13 nM
[3]; Table 1C, SRB, 72 h
  IC50: 11 nM
[3]; Table 3
  IC50: 10.6 nM
DC-3F/ADII
  IC50: 19.8 nM
DC-3F/ADX; Table 1C
  folds of resistance (IC50 ratio vs parent cell line): (3.9x)
DC-3F/ADX; Table 1C, SRB, 72 h
  IC50: 42 nM
DC-3F/ADX; Table 3
  IC50: 42 nM
Murine leukemic P388/0
  IC50: 21.3 nM
P388/Adr
  folds of resistance (IC50 ratio vs parent cell line): (0.59x)
  IC50: 12.5 nM
[4]
  IC50: 73 nM
SK-N-FI
  folds of resistance (IC50 ratio vs parent cell line): (3.1x)
  IC50: 223 nM
MCF-7
  IC50: 32 nM
MCF-7/Adr
  folds of resistance (IC50 ratio vs parent cell line): (4.5x)
  IC50: 144 nM
